Reference: patent publication US20120264830A1, “CHONDROITIN SULFATE-POLYCAPROLACTONE COPOLYMER, METHOD FOR PREPARING THE SAME AND APPLICATION THEREOF” (KAOHSIUNG MEDICAL UNIVERSITY, priority 2011, published 2012)

System: lung cancer cell CRL-5802
Experiment: Cytotoxicity test of the medical composition and of camptothecin (MTT)
Type: cell-based
Details: CRL-5802 cells, camptothecin concentration 1 μg/mL, treatment time 24 hours
Method: 5000 cells/well of CRL-5802 were placed in a 96-well plate containing 100 μL of DMEM, followed by cultivation for 24 hours at 37° C. and 5% CO2. The cell culture medium was periodically replaced during the cultivation period. Thereafter, the medical composition described in the section of “Preparation of medical composition” was mixed with DMEM to prepare an original solution having a concentration of 250 μg/mL (the concentration of camptothecin was 10 μg/mL). The original solution was diluted with DMEM to obtain six diluted solutions such that the concentrations of camptothecin in the six diluted solutions were respectively 4 μg/mL, 2 μg/mL, 1 μg/mL, 0.2 μg/mL, 0.1 μg/mL and 0.04 μg/mL. The original solution and the six diluted solutions were added into the respective wells containing cell s such that the final concentrations of camptothecin were adjusted to 5 μg/mL, 2 μg/mL, 1 μg/mL, 0.5 μg/mL, 0.1 μg/mL, 0.05 μg/mL, and 0.02 μg/mL respectively (experimental groups). The cells in the control group were cultured with DMEM without addition of the medical composition. The cells were further cultivated for 24 hours. […] The absorbance of each of the wells containing cells at 490 nm was recorded, thereby calculating the cell survival rate based on the aforesaid equation. […]

## CC[C@@]1(O)C(=O)OCc2c1cc1n(c2=O)Cc2cc3ccccc3nc2-1 [camptothecin]
  cell survival rate: 30%
